Test results from publication PMC4979471 (Cell Death Discovery, 2015).
Like-named read-outs stand apart in the source and are kept apart here.

How the values were obtained:
Assay in all cases: Kinase selectivity, P33-radiolabeled assay
Type in all cases: biochemical
ARK5/NUAK1 = target: T1, ARK5/NUAK1 (Homo sapiens, UniProt O60285); settings: 10 μM ATP
T1 construct: purchased Reaction Biology Corp
T1 sequence (O60285 1-661): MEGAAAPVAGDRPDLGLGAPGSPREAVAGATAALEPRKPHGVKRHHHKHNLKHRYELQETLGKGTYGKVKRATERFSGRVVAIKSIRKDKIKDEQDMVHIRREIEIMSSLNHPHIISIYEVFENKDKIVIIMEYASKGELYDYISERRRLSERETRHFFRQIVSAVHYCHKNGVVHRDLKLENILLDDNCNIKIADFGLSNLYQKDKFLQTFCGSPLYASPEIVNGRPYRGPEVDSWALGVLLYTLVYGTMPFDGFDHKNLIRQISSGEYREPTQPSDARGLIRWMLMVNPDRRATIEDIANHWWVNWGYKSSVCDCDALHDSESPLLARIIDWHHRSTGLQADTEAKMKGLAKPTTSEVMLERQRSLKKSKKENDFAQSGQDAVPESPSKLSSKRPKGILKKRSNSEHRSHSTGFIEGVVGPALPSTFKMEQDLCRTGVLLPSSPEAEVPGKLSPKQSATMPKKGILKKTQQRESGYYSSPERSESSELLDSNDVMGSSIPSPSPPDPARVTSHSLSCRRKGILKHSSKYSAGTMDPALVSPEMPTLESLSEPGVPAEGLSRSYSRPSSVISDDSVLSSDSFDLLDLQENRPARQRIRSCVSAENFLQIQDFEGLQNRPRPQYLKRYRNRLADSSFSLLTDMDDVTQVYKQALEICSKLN
Method in brief: (§1)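 Each enzyme was exposed to 10 μM compound, with duplicate measurements, in reactions containing 10 μM ATP. Numbers are remaining activity as a percent of the vehicle (DMSO) signal.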

WEE1 = target: T2, WEE1 (Homo sapiens, UniProt P30291); settings: 10 μM ATP
T2 construct: purchased Reaction Biology Corp
T2 sequence (P30291 whole entry): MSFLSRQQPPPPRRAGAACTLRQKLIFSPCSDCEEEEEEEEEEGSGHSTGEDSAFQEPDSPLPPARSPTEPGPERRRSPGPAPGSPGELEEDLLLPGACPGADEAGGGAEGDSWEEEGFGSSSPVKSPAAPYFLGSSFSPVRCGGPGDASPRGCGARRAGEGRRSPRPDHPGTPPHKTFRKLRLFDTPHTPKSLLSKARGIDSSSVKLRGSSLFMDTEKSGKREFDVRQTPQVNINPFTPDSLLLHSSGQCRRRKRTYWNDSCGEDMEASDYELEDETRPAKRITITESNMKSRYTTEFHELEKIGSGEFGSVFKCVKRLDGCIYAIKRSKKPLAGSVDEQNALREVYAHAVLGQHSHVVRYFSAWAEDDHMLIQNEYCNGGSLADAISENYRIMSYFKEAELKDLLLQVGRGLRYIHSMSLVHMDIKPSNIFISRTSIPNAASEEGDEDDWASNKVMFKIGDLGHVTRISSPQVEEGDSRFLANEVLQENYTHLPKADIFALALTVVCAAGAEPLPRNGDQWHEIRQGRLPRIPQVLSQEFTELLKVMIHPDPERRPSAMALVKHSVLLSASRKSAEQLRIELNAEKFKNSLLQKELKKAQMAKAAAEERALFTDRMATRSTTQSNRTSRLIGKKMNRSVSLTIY
Method in brief: as §1

MEK2 = target: T3, MEK2 (Homo sapiens, UniProt P36507)
T3 construct: purchased Reaction Biology Corp
T3 sequence (P36507 whole entry): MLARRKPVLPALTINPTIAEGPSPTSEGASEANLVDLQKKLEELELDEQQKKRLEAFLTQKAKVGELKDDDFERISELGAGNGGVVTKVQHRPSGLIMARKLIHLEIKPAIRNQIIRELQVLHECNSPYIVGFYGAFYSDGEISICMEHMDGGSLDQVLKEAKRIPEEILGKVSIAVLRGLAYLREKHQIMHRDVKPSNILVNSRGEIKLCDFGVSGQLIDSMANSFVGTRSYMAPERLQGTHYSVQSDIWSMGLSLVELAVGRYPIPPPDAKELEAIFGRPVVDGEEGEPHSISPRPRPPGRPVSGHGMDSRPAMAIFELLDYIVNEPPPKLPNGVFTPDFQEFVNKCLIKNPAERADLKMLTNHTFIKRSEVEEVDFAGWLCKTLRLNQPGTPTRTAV
Method in brief: as §1

BLK = target: T4, BLK (Homo sapiens, UniProt P51451); settings: 10 μM ATP
T4 construct: purchased Reaction Biology Corp
T4 sequence (P51451 whole entry): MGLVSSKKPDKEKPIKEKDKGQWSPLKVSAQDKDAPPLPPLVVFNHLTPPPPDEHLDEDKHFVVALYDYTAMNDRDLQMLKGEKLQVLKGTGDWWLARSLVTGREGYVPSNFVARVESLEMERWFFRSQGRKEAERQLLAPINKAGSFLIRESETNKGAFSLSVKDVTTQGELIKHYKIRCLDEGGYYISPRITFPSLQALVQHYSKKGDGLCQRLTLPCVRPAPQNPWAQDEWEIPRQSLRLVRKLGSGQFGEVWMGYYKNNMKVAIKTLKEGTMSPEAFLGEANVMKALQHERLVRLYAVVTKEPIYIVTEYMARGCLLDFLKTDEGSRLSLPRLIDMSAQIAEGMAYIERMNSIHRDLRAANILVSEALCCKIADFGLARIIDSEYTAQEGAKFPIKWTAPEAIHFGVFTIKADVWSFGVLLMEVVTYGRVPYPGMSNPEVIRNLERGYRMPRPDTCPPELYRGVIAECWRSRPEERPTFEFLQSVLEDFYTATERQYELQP
Method in brief: as §1

PDGFRb = target: T5, PDGFRb (Homo sapiens, UniProt P09619); settings: 10 μM ATP
T5 construct: purchased Reaction Biology Corp
T5 sequence (P09619 33-1106): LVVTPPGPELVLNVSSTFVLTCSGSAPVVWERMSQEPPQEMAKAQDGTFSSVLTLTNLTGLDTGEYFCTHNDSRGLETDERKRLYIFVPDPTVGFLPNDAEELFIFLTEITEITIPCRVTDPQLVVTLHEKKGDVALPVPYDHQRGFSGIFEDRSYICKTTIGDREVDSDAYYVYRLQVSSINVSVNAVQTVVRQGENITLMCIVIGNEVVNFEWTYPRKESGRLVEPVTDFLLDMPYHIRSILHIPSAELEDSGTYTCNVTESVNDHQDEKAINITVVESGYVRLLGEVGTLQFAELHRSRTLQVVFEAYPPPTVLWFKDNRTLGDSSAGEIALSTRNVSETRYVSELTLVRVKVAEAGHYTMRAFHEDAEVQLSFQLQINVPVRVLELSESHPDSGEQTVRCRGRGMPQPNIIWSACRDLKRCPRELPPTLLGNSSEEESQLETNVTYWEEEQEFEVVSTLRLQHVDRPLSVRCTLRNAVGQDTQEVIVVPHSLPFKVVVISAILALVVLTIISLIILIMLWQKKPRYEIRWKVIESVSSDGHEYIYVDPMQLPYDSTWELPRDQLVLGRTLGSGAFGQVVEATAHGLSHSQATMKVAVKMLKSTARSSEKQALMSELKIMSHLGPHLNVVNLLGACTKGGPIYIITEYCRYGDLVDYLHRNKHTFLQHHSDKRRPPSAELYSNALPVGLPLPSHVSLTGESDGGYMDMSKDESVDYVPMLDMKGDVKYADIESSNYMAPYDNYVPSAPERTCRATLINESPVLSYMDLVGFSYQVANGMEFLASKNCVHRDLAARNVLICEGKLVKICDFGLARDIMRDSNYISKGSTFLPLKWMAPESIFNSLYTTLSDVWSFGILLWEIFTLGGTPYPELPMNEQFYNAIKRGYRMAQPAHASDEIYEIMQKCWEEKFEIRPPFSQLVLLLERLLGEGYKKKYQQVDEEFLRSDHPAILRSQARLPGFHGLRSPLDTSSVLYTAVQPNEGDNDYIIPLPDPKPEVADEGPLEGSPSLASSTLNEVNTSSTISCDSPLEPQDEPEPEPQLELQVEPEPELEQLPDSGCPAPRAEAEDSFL
Method in brief: as §1

GCK/MAP4K2 = target: T6, GCK/MAP4K2 (Homo sapiens, UniProt Q12851); settings: 10 μM ATP
T6 construct: purchased Reaction Biology Corp
T6 sequence (Q12851 1-820): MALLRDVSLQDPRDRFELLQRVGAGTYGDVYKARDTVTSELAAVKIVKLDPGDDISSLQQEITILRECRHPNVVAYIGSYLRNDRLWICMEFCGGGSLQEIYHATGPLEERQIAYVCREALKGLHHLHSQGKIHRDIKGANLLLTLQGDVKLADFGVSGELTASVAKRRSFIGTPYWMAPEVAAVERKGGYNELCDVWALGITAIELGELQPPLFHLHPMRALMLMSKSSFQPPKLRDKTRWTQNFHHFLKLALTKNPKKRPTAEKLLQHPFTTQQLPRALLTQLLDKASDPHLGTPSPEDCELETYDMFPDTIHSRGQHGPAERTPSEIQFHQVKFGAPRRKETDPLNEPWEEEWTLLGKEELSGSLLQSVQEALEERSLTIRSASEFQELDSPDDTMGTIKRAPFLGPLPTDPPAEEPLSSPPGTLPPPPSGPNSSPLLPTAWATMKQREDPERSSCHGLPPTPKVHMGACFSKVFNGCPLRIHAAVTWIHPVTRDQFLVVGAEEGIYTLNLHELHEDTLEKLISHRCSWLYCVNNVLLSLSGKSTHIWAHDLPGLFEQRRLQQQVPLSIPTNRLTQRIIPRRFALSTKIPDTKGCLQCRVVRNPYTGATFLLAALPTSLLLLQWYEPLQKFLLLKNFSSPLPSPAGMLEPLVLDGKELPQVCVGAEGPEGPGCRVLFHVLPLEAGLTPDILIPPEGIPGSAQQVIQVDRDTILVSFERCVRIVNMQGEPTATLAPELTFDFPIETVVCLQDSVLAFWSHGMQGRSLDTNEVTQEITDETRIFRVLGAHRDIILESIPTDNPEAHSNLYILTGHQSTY
Method in brief: as §1

ZAP70 = target: T7, ZAP70 (Homo sapiens, UniProt P43403); settings: 10 μM ATP
T7 construct: purchased Reaction Biology Corp
T7 sequence (P43403 1-619): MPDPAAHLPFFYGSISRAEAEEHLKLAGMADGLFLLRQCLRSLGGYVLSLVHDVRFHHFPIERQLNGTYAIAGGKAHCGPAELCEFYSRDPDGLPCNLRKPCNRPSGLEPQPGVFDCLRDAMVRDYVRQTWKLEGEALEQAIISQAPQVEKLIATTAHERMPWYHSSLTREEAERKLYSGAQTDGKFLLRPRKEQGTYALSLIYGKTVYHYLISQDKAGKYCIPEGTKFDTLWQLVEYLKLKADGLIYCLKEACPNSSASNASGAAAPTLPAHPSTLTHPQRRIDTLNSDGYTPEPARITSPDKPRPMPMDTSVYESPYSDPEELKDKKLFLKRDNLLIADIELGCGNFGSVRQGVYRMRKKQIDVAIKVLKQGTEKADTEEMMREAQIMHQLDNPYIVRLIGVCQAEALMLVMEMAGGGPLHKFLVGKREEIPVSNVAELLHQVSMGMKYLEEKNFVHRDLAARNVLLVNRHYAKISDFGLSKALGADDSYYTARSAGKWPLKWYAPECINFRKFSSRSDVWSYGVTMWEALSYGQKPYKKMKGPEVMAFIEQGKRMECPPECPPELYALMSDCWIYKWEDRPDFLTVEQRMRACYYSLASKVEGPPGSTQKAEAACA
Method in brief: as §1

P38b/MAPK11 = target: T8, P38b/MAPK11 (Homo sapiens, UniProt Q15759); settings: 10 μM ATP
T8 construct: purchased Reaction Biology Corp
T8 sequence (Q15759 whole entry): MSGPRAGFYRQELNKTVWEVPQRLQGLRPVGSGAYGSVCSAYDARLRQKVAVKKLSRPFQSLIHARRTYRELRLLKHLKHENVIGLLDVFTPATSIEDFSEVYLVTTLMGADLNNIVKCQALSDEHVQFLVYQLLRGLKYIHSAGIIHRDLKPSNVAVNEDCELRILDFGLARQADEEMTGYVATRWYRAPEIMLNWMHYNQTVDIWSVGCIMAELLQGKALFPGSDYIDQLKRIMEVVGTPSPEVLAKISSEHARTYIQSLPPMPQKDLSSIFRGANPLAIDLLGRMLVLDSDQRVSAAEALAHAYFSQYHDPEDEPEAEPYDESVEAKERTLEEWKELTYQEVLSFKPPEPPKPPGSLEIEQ
Method in brief: as §1

PKCg = target: T9, PKCg (Homo sapiens, UniProt P05129); settings: 10 μM ATP
T9 construct: purchased Reaction Biology Corp
Method in brief: as §1

[1] = read-out: % Enzyme Activity (relative to DMSO controls) AVG
[2] = read-out: % Enzyme Activity (relative to DMSO controls) Data 1
[3] = read-out: % Enzyme Activity (relative to DMSO controls) Data 2

Q: Which results are given for `CC(C)(C)C(=O)N1N=CC[C@H]1c1ccccc1` [GSK′963]?
A: remaining activity at 10 µM (ARK5/NUAK1; [1]): 98%; remaining activity at 10 µM (ARK5/NUAK1; [2]): 95.8%; remaining activity at 10 µM (ARK5/NUAK1; [3]): 100%; remaining activity at 10 µM (WEE1; [1]): 85.6%; remaining activity at 10 µM (WEE1; [2]): 81.9%; remaining activity at 10 µM (WEE1; [3]): 89.2%; remaining activity at 10 µM (MEK2; 10 uM, 10 μM ATP, read-out: % Enzyme Activity (relative to DMSO controls) AVG): 102%; remaining activity at 10 µM (MEK2; 10 uM, 10 μM ATP, read-out: % Enzyme Activity (relative to DMSO controls) Data 2): 103%; remaining activity at 10 µM (MEK2; [2]): 101%; remaining activity at 10 µM (BLK; [1]): 113%; remaining activity at 10 µM (BLK; [2]): 112%; remaining activity at 10 µM (BLK; [3]): 113%; remaining activity at 10 µM (PDGFRb; [1]): 104%; remaining activity at 10 µM (PDGFRb; [2]): 101%; remaining activity at 10 µM (PDGFRb; [3]): 107%; remaining activity at 10 µM (GCK/MAP4K2; [1]): 109%; remaining activity at 10 µM (GCK/MAP4K2; [2]): 108%; remaining activity at 10 µM (GCK/MAP4K2; [3]): 110%; remaining activity at 10 µM (ZAP70; [1]): 111%; remaining activity at 10 µM (ZAP70; [2]): 111%; remaining activity at 10 µM (ZAP70; [3]): 111%; remaining activity at 10 µM (P38b/MAPK11; [1]): 102%; remaining activity at 10 µM (P38b/MAPK11; [2]): 104%; remaining activity at 10 µM (P38b/MAPK11; [3]): 99.3%; remaining activity at 10 µM (PKCg; [1]): 88.5%; remaining activity at 10 µM (PKCg; [2]): 86.8%; remaining activity at 10 µM (PKCg; [3]): 90.2%
